Earlier results as cited in patent US12371748B2, “Genetic markers for predicting responsiveness to therapy with HDL-raising or HDL mimicking agent” (Hoffmann-La Roche Inc., priority 2014, dated 2025).

Assays:
CETP = target: T1, CETP (Oryctolagus cuniculus, UniProt P22687); details: rabbits; cited from earlier work
T1 construct: host or cells: rabbits (in vivo; endogenous plasma CETP)
T1 sequence (P22687 2-497): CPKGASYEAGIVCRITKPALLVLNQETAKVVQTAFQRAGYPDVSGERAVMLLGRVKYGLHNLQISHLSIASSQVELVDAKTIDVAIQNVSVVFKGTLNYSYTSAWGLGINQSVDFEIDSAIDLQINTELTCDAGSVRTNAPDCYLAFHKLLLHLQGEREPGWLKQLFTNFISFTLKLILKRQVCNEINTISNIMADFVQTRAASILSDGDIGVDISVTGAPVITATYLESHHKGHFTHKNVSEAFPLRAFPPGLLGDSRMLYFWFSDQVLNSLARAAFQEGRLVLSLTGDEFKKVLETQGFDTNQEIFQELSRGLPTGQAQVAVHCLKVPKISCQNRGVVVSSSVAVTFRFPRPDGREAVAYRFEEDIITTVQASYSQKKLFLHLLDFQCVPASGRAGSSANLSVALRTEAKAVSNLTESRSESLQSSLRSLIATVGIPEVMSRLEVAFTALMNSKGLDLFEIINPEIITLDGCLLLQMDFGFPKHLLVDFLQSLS

[1] = rabbits; cited from earlier work

For `CCC(CC)CC1(C(=O)Nc2ccccc2SC(=O)C(C)C)CCCCC1` [dalcetrapib, thioisobutyric acid S-(2-{[1-(2-ethyl-butyl)-cyclohexanecarbonyl]-amino}-phenyl) ester], the CETP activity (CETP) is listed as “inhibitor of CETP activity”, the LDL cholesterol [1] is listed as “decrease LDL cholesterol” and the “plasma HDL cholesterol” value [1] is listed as “increase plasma HDL cholesterol”.
